The numbers were not newly measured in the CATMoS acute toxicity set (Mansouri et al. 2021), which cites them from elsewhere.

“And” between values parts separate entries of the source, which are not always exact repeats. Equal values may be shown once.

The data set is described as follows: rat acute oral toxicity. Conditions: in vivo.
For orientation: LD50 means the dose expected to kill half of the subjects tested. Turning to `C#CCCC#CC#CCCCCO`, the 50% lethal dose (LD50) was 250 mg/kg. For the compound `C1COCCOCCOCCO1`, the LD50 was 2830 mg/kg. As for `CCOP(=S)(OCC)SCn1nc(CC)ccc1=O`, the LD50 was 18.8 mg/kg. For the compound `CC[N+](C)(CC)CCOC(=O)C(O)(c1ccccc1)C1CCCCC1` (stereo not given), the LD50 is 995 mg/kg.

On to `O=C(O)Cc1ccc2c(c1)C(=O)c1ccccc1CN2`, for which the LD50 was 810 mg/kg.

Take `O=S(=O)(c1ccccc1)c1ccc(Cl)cc1`: the 50% lethal dose (LD50) was 1400 mg/kg. With `CSC(C)=NOC(=O)N(C)SN(C(C)C)P1(=S)OCCCO1`, the 50% lethal dose (LD50) was 600 mg/kg. Take `Cc1cc(Cl)cc2sc(-c3sc4cc(Cl)cc(C)c4c3OS(=O)(=O)O)c(OS(=O)(=O)O)c12`: the LD50 is 4360 mg/kg.

As to `CNC(=O)Oc1cccc(N=CN(C)C)c1`, the LD50 was 20 mg/kg. Consider `COc1ccc2[nH]c(S(=O)Cc3ncc(C)c(OC)c3C)nc2c1` (stereo not given), for which the 50% lethal dose (LD50) is 2210 mg/kg. Regarding `CC(=O)CCC(C)=O`, the LD50 is 2080 mg/kg. As to `Clc1ccc(C(Cn2ccnc2)OCc2c(Cl)cccc2Cl)c(Cl)c1` (stereo not given), the 50% lethal dose (LD50) is 5600 mg/kg. Regarding `Cc1ccccc1C(OC1CC2CCC(C1)N2C)c1ccccc1` (stereo not given), the LD50 is 400 mg/kg. For `C=CC(=O)OCCOC(=O)c1ccc(C(=O)O)cc1C(=O)O`, the median lethal dose (LD50) is 3190 mg/kg. In the case of `O=C(Cc1ccc2c(c1)OCc1ccccc1C2=O)OCC(O)CO` (stereo not given), the 50% lethal dose (LD50) was 95 mg/kg. As for `N#CC(O)c1cccc(Oc2ccccc2)c1` (stereo not given), the LD50 was 800 mg/kg. For `COc1ccc2c(c1OC)C13CCN(C)C(C2)C1(O)CCC(O)C3` (stereo not given), the median lethal dose (LD50) is 339 mg/kg.

As for `O=C(O)c1cc(Oc2ccc(C(F)(F)F)cc2Cl)ccc1[N+](=O)[O-]`, the 50% lethal dose (LD50) was 1370 mg/kg. For `Cc1cc([N+](=O)[O-])ccc1S(=O)(=O)NCCO`, the median lethal dose (LD50) is 4470 mg/kg. For the compound `CCCCc1c(OC(=O)c2cccs2)n(-c2ccccc2)n(-c2ccccc2)c1=O`, the median lethal dose (LD50) is 1180 mg/kg. `Nc1ccc(Oc2ccc(S(=O)(=O)c3ccc(Oc4ccc(N)cc4)cc3)cc2)cc1`: the 50% lethal dose (LD50) was 220 mg/kg. For `CCN(CC)c1ccc(-c2nc(=O)n(C)nc2-c2ccc(N(CC)CC)cc2)cc1`, the median lethal dose (LD50) is 650 mg/kg. For `CC(C)=CC1C(C(=O)Cl)C1(C)C` (stereo not given), the median lethal dose (LD50) was 400 mg/kg. Take `CCOC(=O)C1=C(C)NC(C)=C(C(=O)OC)C1c1cccc(Cl)c1Cl` (stereo not given): the LD50 is 1050 mg/kg. In the case of `CC(C)CCCCCOC(=O)CS`, the 50% lethal dose (LD50) was 348 mg/kg.

For `CCCCN(CC)N=O`, the 50% lethal dose (LD50) was 380 mg/kg. For `Cc1c(Nc2ncnc3ccccc23)c(=O)n(C)n1-c1ccccc1`, the LD50 was 369 mg/kg. With `Cc1ccc(SP(=S)(CCl)OC(C)C)cc1` (stereo not given), the LD50 is 204 mg/kg. With `Clc1cc(Cl)cc(C2(CC(Cl)(Cl)Cl)CO2)c1` (stereo not given), the median lethal dose (LD50) was 1500 mg/kg. With `O=C1NCCN1/N=C/c1ccc([N+](=O)[O-])o1`, the 50% lethal dose (LD50) is 1680 mg/kg. For `N#Cc1ccc(F)cc1C#N`, the LD50 is 14 mg/kg. `C=CC(=O)N1CN(C(=O)C=C)CN(C(=O)C=C)C1`: the LD50 is 350 mg/kg. Consider `CC(C)=CC(=O)O[C@H]1CC[C@]2(C=O)[C@H]3CC[C@]4(C)[C@@H](c5ccc(=O)oc5)CC[C@]4(O)[C@@H]3CC[C@]2(O)C1`, for which the 50% lethal dose (LD50) is 1.74 mg/kg. In the case of `C#CC(C)(O)C(O)c1ccccc1` (stereo not given), the LD50 was 730 mg/kg. Take `CCOCCOCCCO`: the median lethal dose (LD50) is 7060 mg/kg. In the case of `CCOC(=O)N(C)CC1CCN(c2nc(N)c3cc(OC)c(OC)cc3n2)CC1`, the LD50 was 660 mg/kg.

Turning to `O=NN(c1ccccc1)c1ccccc1`, the 50% lethal dose (LD50) is 1820 mg/kg.

As to `CC(=Nc1c(I)cc(I)c(C(=O)NCC(C)C(=O)O)c1I)N1CCOCC1` (stereo not given), the 50% lethal dose (LD50) is 15000 mg/kg and 7000 mg/kg. For the compound `CCCCCN(N=O)C(N)=O`, the 50% lethal dose (LD50) is 560 mg/kg. As for `CCOCCC(OCC)OCC`, the LD50 is 1600 mg/kg. `O=C(OC1CCC(N2CCCCC2)CC1)c1ccccc1` (stereo not given): the LD50 was 780 mg/kg.

Take `CN1C2CCC(C)(C)C1CC(OC(=O)C(O)(c1cccs1)c1cccs1)C2` (stereo not given): the LD50 is 1180 mg/kg.

As to `Cc1ccc2c(Cl)cc(Cl)c(O)c2n1`, the median lethal dose (LD50) is 660 mg/kg. `CCOP(=O)(OC=C(SCC)SCC)OCC`: the median lethal dose (LD50) was 15 mg/kg.

With `CCCCCCCCCCCCCCCC[n+]1ccccc1`, the 50% lethal dose (LD50) is 200 mg/kg and 475 mg/kg. Take `COP(=S)(OC)Oc1ccc([N+](=O)[O-])c(Cl)c1`: the LD50 was 285 mg/kg. With `Cc1ccc(C(=O)C(C)CN2CCCCC2)cc1` (stereo not given), the median lethal dose (LD50) is 1450 mg/kg.

For `O=C(O)CCCCC(=O)O`, the median lethal dose (LD50) was 7900 mg/kg and 10000 mg/kg.

Take `CCOP(=O)(O)C(N)=O`: the 50% lethal dose (LD50) was 10100 mg/kg.

In the case of `COC(=O)C1=C(C)NC(C)=C(C(=O)OC)C1c1ccccc1[N+](=O)[O-]`, the median lethal dose (LD50) is 1020 mg/kg.

Regarding `Cc1ccc(C=O)o1`, the LD50 is 2200 mg/kg.

On to `CNC(=O)c1c(I)c(C(=O)NCC(=O)Nc2c(I)c(C(=O)O)c(I)c(C(=O)NCCO)c2I)c(I)c(N(C)C(C)=O)c1I`, for which the median lethal dose (LD50) is 13300 mg/kg. Turning to `CCOC(=O)c1ccc(OC)cc1`, the LD50 is 2040 mg/kg. In the case of `CC(Cl)(Cl)[N+](=O)[O-]`, the LD50 was 410 mg/kg. Turning to `CCC(=O)OC1(c2ccccc2)CCN(C)C1C` (stereo not given), the LD50 is 253 mg/kg.

With `CC(COc1ccc(Cl)cc1Cl)C(=O)O` (stereo not given), the LD50 is 800 mg/kg.

Turning to `O=C=Nc1cccc(Cl)c1`, the median lethal dose (LD50) is 4200 mg/kg. In the case of `CCCCCCCCCCCC[N+](CCO)(CCO)Cc1ccccc1`, the LD50 was 750 mg/kg.

On to `O=S(=O)(F)C(F)(F)C(F)(F)C(F)(F)C(F)(F)C(F)(F)C(F)(F)C(F)(F)C(F)(F)F`, for which the LD50 was 154 mg/kg. On to `Nc1ccc(N(c2ccccc2)c2ccc(N)cc2)cc1`, for which the 50% lethal dose (LD50) is 330 mg/kg.
